Values joined by “and” are separate entries in the source; they are usually repeats but may differ in a detail not shown here. Equal entries are not always repeated.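 Each compound was tested at five concentrations against cells in 96-well plates for 48 hours. Here, GI50 denotes the concentration required for 50% inhibition of growth. Definition used: TGI = concentration required for complete inhibition of growth.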
Experiments:
Assay in all cases: NCI tumour cell line growth inhibition, 48 h
A498 renal = tested on: A498 renal
CCRF-CEM leukemia = tested on: CCRF-CEM leukemia
COLO 205 colon = tested on: COLO 205 colon
M14 melanoma = tested on: M14 melanoma
NCI-H460 lung = tested on: NCI-H460 lung
PC-3 prostate = tested on: PC-3 prostate
SK-OV-3 ovarian = tested on: SK-OV-3 ovarian
SN12C renal = tested on: SN12C renal
SW-620 colon = tested on: SW-620 colon
TK-10 renal = tested on: TK-10 renal

| Structure (SMILES) | GI50 (A498 renal) | TGI (A498 renal) | GI50 (CCRF-CEM leukemia) | TGI (CCRF-CEM leukemia) | GI50 (COLO 205 colon) | TGI (COLO 205 colon) | GI50 (M14 melanoma) | TGI (M14 melanoma) | GI50 (NCI-H460 lung) | TGI (NCI-H460 lung) | GI50 (PC-3 prostate) | TGI (PC-3 prostate) | GI50 (SK-OV-3 ovarian) | TGI (SK-OV-3 ovarian) | GI50 (SN12C renal) | TGI (SN12C renal) | GI50 (SW-620 colon) | TGI (SW-620 colon) | GI50 (TK-10 renal) | TGI (TK-10 renal) |
| --- | --- | --- | --- | --- | --- | --- | --- | --- | --- | --- | --- | --- | --- | --- | --- | --- | --- | --- | --- | --- |
| COc1ccc(-c2coc3ncnc(N)c23)cc1 | 13.7 µM | > 25 µM | > 25 µM | > 25 µM | > 25 µM | > 25 µM | > 25 µM | > 25 µM | > 25 µM | > 25 µM | > 25 µM | > 25 µM | > 25 µM | > 25 µM | > 25 µM | > 25 µM | > 25 µM | > 25 µM | > 25 µM | > 25 µM |
| NC1=NC(=O)N2CC12 (configuration not stated) | 228 µM | > 100 µM and 875 µM | 17.3 µM and 14.3 µM | > 100 µM and 58.9 µM and 89.8 µM | 278 µM | > 100 µM and 929 µM | – | > 100 µM and 273 µM | 182 µM | > 100 µM and 866 µM | 86.1 µM and 321 µM | 1130 µM | 369 µM | > 100 µM and 991 µM | – | > 100 µM and 349 µM | 48.2 µM and 58.4 µM | > 100 µM and 143 µM | 65.1 µM and 144 µM | > 100 µM and 389 µM |
| O=c1oc2ccc(Cl)cc2c(=O)n1-c1ccc(Cl)cc1F | 0.161 µM | 0.498 µM | 1.7 µM | 10.4 µM | 6.74 µM | 22.4 µM | 0.578 µM | 2.12 µM | 0.412 µM | 11 µM | 0.812 µM | 5.04 µM | 0.501 µM | – | 0.431 µM | 3.78 µM | 0.652 µM | 9.02 µM | 1.59 µM | 17.7 µM |
| CCOC(=O)[C@H](CSSc1ncnc2cc[nH]c12)NC(=O)[C@@H](C)c1ccc2cc(OC)ccc2c1 | 6.96 µM | > 50.9 µM | 0.532 µM | > 100 µM | 1.85 µM | > 100 µM | 0.13 µM | > 62.1 µM | 3.04 µM | > 100 µM | 2.78 µM | > 100 µM | 2.77 µM | > 100 µM | 3.98 µM | > 100 µM | 1.64 µM | > 100 µM | 0.265 µM | > 59.6 µM |
| COc1cc2c(c(OC)c1OC)-c1ccc([O-])c(=O)cc1[C@@H](NC(C)=O)CC2.COc1cc2c(c(OC)c1OC)-c1ccc([O-])c(=O)cc1[C@@H](NC(C)=O)CC2.[Cu+2] | 2.41 µM | 8.53 µM | 3.33 µM | 19 µM | 2.82 µM | 9.19 µM | 2.79 µM | > 100 µM | 3.29 µM | 15.7 µM | 3.63 µM | > 100 µM | 2.95 µM | > 100 µM | 4.97 µM | > 100 µM | 3.44 µM | > 100 µM | 9.55 µM | > 100 µM |
| Cc1cc(NC(=O)c2ccc(NS(=O)(=O)CCO)cc2N2CCC3(CC2)CC3)nc(N2CCC(F)(F)CC2)n1 | 16.7 µM | 31 µM | 10 µM | > 66 µM | 11 µM | 28.4 µM | 14.3 µM | 28.9 µM | 12.6 µM | 26.8 µM | 7.46 µM | 23.6 µM | 11.1 µM | 26 µM | 11.7 µM | 24.4 µM | 13.1 µM | 27.1 µM | 17.7 µM | 32.6 µM |
| CS(=O)(=O)c1ccc(N/N=C/c2c(-c3ccc(S(C)(=O)=O)cc3)[nH]c3ccc(F)cc23)cc1 | 1.39 µM | 4.88 µM | 1.2 µM | > 50 µM | 2.86 µM | > 50 µM | 2.16 µM | > 50 µM | 1.77 µM | > 50 µM | 2.18 µM | > 50 µM | 3.27 µM | > 50 µM | 2.97 µM | > 50 µM | 4.57 µM | > 50 µM | 2.95 µM | > 50 µM |
| COc1cc(N2CCC(N3CCN(C)CC3)CC2)ccc1Nc1ncc(Cl)c(Nc2ccccc2P(C)(C)=O)n1 | 0.305 µM | 1.12 µM | 4.41 µM | 98 µM | 0.381 µM | 2.08 µM | 2.12 µM | > 34 µM | 2.47 µM | > 40 µM | 4.19 µM | > 100 µM | 0.992 µM | 5 µM | 1.03 µM | > 100 µM | 1.71 µM | 19.6 µM | 0.296 µM | 3.09 µM |
| COc1ccc(-c2cc(-c3ccc(Nc4nc(Nc5ccc(Cl)cc5)nc(Nc5ccc(Cl)cc5)n4)cc3)no2)cc1 | 14 µM | 61.1 µM | 3.27 µM | 11.6 µM | 11.6 µM | 29.7 µM | 16.2 µM | 53.7 µM | 5.58 µM | 25.2 µM | 3.65 µM | 25.5 µM | 25.8 µM | 79.4 µM | 20.2 µM | > 100 µM | 11.3 µM | 25.6 µM | 20.4 µM | 72.7 µM |
| CC[C@H](C)c1occ2c(O)c(C(=O)O)c(=O)cc-2c1C | – | 93.5 µM | – | 53.5 µM | – | 36.8 µM | – | > 100 µM | – | 60.6 µM | – | > 100 µM | – | 63.7 µM | – | 81.4 µM | – | 44.5 µM | – | > 100 µM |
| O=S(=O)(NCCNc1cc(-c2cn(-c3ccccc3)nc2-c2cccc(O)c2)ccn1)c1ccc(C(F)(F)F)cc1 | 3.05 µM | 14.5 µM | 3.27 µM | 8.05 µM | 1.81 µM | 4 µM | 2.12 µM | 7.17 µM | 3.23 µM | 10.1 µM | 2.47 µM | 10.9 µM | 3.79 µM | 16.2 µM | 2.31 µM | 5.49 µM | 3.55 µM | 12.9 µM | 2.81 µM | 18.7 µM |
| CCN(Cc1ccc(F)cc1)c1ccc(CO)c(Cl)c1 | 0.019 µM | 0.0936 µM | 15.9 µM | 62.6 µM | 1.35 µM | 3.77 µM | 12.5 µM | > 51.8 µM | 0.213 µM | 11.7 µM | 14.3 µM | 49.4 µM | 3.86 µM | 25.2 µM | 12.1 µM | 33.4 µM | 0.838 µM | > 41 µM | 0.0366 µM | 0.181 µM |
| O=C(OC(C(=O)O)C(OC(=O)c1ccccc1)C(=O)O)c1ccccc1 (configuration not stated) (tested in a mixture with another compound) | – | > 100 µM | – | > 100 µM | – | > 100 µM and 16.6 µM | – | > 100 µM | – | > 100 µM | – | 33.5 µM | – | > 100 µM | – | > 100 µM | – | > 100 µM | – | > 100 µM |
| COc1ccc(OC)c(/C=C/c2nnc(Nc3ccc(Cl)cc3)o2)c1 | 1.87 µM | 7.76 µM | > 100 µM | > 100 µM | 16.6 µM | > 100 µM | 20.7 µM | > 100 µM | 3.77 µM | > 100 µM | 13.3 µM | 76 µM | 2.79 µM | 7.85 µM | 4.21 µM | > 100 µM | 18.3 µM | > 100 µM | 7.4 µM | 83.2 µM |
| CCCCCCN(CCCCCC)C(=N)c1ccnc2ccccc12 | 3.07 µM | 16.6 µM | 3.17 µM | 18.4 µM | 1.45 µM | 2.97 µM | 1.89 µM | 4.56 µM | 2.59 µM | 12.7 µM | 5.81 µM | 20.2 µM | 12.3 µM | 24.7 µM | 7 µM | 21.6 µM | 3.27 µM | 17.8 µM | 2.15 µM | 9.67 µM |
| Nc1ncc(-c2cnn(C3CCNCC3)c2)cc1-c1nc2ccccc2o1 | 1.53 µM | 3.46 µM | 0.235 µM | 0.677 µM | 1.55 µM | 3.05 µM | 1.21 µM | 2.54 µM | 0.998 µM | 2.54 µM | 1.59 µM | 6.68 µM | 1.11 µM | 5.78 µM | 0.478 µM | 4.41 µM | 1.09 µM | 2.38 µM | 0.924 µM | 4.04 µM |

— PubChem BioAssay (NCI)
